The results in this text go back to patent publication US10639313B2, “Compound for inhibition of delta-5-desaturase (D5D) and treatment of cancer and inflammation” (NDSU Research Foundation, priority 2017, dated 2020).

The structures appear in SMILES notation. Several values for one entry are separate records, joined by “and”; a condition that tells them apart may be missing. Equal values may be shown once. Read-outs that look alike come from different tables or passages of the source.

One assay deals with BxPC-3 xenograft tumor. Put plainly: Xenograft tumor model, nude mice bearing BxPC-3. The format is in vivo. Conditions: BxPC-3 tumor, twice/week up to 4-week, gemcitabine 30 mg/kg, DGLA 8 mg/mouse, iminodibenzyl 25 mg/kg.
The target of the next assay is T1, D5D (Rattus norvegicus, UniProt Q920R3).
T1 construct: Rat liver microsomal assay was conducted
Put plainly: Rat liver microsomal assay, conversion of DGLA to AA by D5D. The class given is biochemical. A general note: Liver microsomes are vesicles of endoplasmic reticulum, rich in cytochrome P450 enzymes.

The next assay deals with A549 xenograft tumor. Put plainly: Xenograft tumor model, nude mice bearing A549. The class given is in vivo. The note with it: for Tumor Growth Reduction % (vs. Control) / [8-HOA]: A549 (printed A459) tumor, every day, 4-week, DGLA 5 mg/mouse oral, iminodibenzyl 15 mg/kg i.p.; for [8-HOA]: control 0.02. The protocol: About two million of selected cancer cells, suspended in 50 μL of PBS, were implanted into hind flank of nude mice. Feeding with standard diet for two weeks after the cell implantation (to allow tumors reach the certain size), mice were then placed into the treatment groups. Twenty mice were randomly divided to four experimental groups (vehicle control, DGLA, […] inhibitor, and DGLA+D5D inhibitor combination) in each treatment regime to assess their anti-tumor responses. Two treatment regimes (e.g., treatment applied on every other day or every day up to 4-week) were assessed for their anti-tumor responses in HAC-7 and A459 tumor models. Every day treatment plan was listed in FIG. 9 as xenograft models and treatment example. Tumor growth was monitored twice a week using a digital caliper as well as via ultrasound image system for treatment outcome. Tumor volume was calculated: V=L×W2/2. At the endpoint (4-week treatment), the mice were euthanized, and the tumor tissues were collected, weighted, conducted for other analysis. Tumor Growth Reduction Rate (%, Tables 5, 7) in each experiment after 4-week treatment was used to assess their associated anti-tumor responses: […]

In a further assay the test system is A549 cells. As to the kind of experiment: 8-HOA formation from COX-2-catalyzed DGLA peroxidation (GC/MS) in A549. The format is cell-based, human. The note with it: A549 (A-495 [sic]) cells; 10 μM; DGLA-enriched media; control 0.29. The protocol: (§1) Colony formation assay was conducted in a total of three human cancer cell lines featuring high levels of COX-2, including HCA-7 (colon cancer), A549 (non-small cell lung cancer), BxPC-3 (pancreatic cancer), upon treatment of iminodibenzyl (10 μM). GC/MS was used to measure 8-HOA formation as described elsewhere.

Assay [1] deals with A549 (non-small cell lung cancer). Put plainly: Colony formation assay / cell survival, A549. The class given is cell-based, human. Conditions: A549 (A-495 [sic]), 10 μM, DGLA-enriched media, control 100%. How it is done:
as §1

The next assay concerns HCA-7 (colon cancer). Put plainly: Colony formation assay / cell survival, HCA-7. Conditions: for Cell Survival Rate: HCA-7/C29, DGLA-enriched media, control 100%. The class given is cell-based, human. How it is done: as §1
The next assay has as its system BxPC-3 cells. Put plainly: 8-HOA formation from COX-2-catalyzed DGLA peroxidation (GC/MS) in BxPC-3. The class given is cell-based, human. Conditions: 10 μM, DGLA-enriched media, control 0.26. The protocol: as §1
Another assay relates to HCA-7/C29 cells. As to the kind of experiment: 8-HOA formation from cellular COX-2-catalyzed DGLA peroxidation (GC/MS) in HCA-7/C29. The class given is cell-based, human. Conditions: 10 μM compound, DGLA-enriched medium, threshold >0.5 μM in 10^6 cells, control 0.33. The protocol:
as §1

Assay [2] deals with Lewis Lung Carcinoma Cells (LLC). Put plainly: Lewis Lung Carcinoma primary tumor growth and metastatic lung tumor formation. The format is in vivo, C57/B6 mice. The note with it: for Primary Tumor size (mm^3) / 8-HOA (μM) in Blood / Reduced Tumor Growth vs. V.C.: dose every day; for Primary Tumor size (mm^3) / Reduced Tumor Growth vs. V.C.: DGLA 5 mg/mouse, iminodibenzyl i.p. 15 mg/kg; for 8-HOA (μM) in Blood: vehicle 0.015; for Reduced Tumor Growth vs. V.C.: primary tumor; for mice that developed metastatic lung tumor: four-week treatment, Day 28 (combination up to Day 31). How it is done: One million Lewis Lung Carcinoma Cells (LLC,), suspended in 50 μL of PBS, were implanted into front/hind flanks (0.5 million each) of C57/B6 mice. A total of twenty […] mice were divided to four groups: six in vehicle control, six in DGLA+iminodibenzyl combination, three in DGLA (oral), and five in iminodibenzyl (i.p.) group. Every day treatment regimen was started one-week after LLC cells implanted into mice blank. Primary tumor growth was monitored twice a week using a digital caliper as well as via ultrasound image system for treatment outcome. Tumor volume was calculated: […] Tumor Growth Reduction Rate (%, Table 8) in each experiment after 4-week treatment was used to assess their associated anti-tumor responses: […]

The subject of a further assay is HCA-7 xenograft tumor. Put plainly: Xenograft tumor model, nude mice bearing HCA-7. The class given is in vivo. The note with it: HCA-7 tumor; for [8-HOA]: control 0.03. The protocol:
About two million of selected cancer cells, suspended in 50 μL of PBS, were implanted into hind flank of nude mice. Feeding with standard diet for two weeks after the cell implantation (to allow tumors reach the certain size), mice were then placed into the treatment groups. Twenty mice were randomly divided to four experimental groups (vehicle control, DGLA, […] inhibitor, and DGLA+D5D inhibitor combination) in each treatment regime to assess their anti-tumor responses. Two treatment regimes (e.g., treatment applied on every other day or every day up to 4-week) were assessed for their anti-tumor responses in HAC-7 and A459 tumor models. Every day treatment plan was listed in FIG. 9 as xenograft models and treatment example. Tumor growth was monitored twice a week using a digital caliper as well as via ultrasound image system for treatment outcome. Tumor volume was calculated: V=L×W2/2. At the endpoint (4-week treatment), the mice were euthanized, and the tumor tissues were collected, weighted, conducted for other analysis.

In assay [3] the test system is BxPC-3 (pancreatic cancer). As to the kind of experiment: Colony formation assay / cell survival, BxPC-3. The class given is cell-based, human. Conditions: 10 μM, DGLA-enriched media, control 100%. How it is done:
as §1

The mark [4] stands for this setting: inhibition of D5D conversion of DGLA to AA, rat liver microsomes, read-out: IC50 (rat microsome).
Setting [5] is: every day, 4-week, DGLA 5 mg/mouse oral, iminodibenzyl 15 mg/kg i.p.

T1 sequence (Q920R3 whole entry): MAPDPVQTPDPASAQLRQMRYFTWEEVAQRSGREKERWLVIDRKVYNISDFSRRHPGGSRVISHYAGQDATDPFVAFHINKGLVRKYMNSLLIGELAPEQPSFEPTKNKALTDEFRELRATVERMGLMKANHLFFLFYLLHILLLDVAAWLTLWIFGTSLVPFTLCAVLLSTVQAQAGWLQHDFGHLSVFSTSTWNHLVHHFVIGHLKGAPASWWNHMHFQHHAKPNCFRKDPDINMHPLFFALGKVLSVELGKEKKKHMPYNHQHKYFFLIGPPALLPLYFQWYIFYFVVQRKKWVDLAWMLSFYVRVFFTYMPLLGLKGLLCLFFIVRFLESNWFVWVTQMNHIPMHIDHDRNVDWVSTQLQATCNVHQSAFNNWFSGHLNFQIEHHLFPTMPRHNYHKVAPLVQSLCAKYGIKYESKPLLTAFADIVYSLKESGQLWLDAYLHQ

On to `Nc1ccn([C@@H]2O[C@H](CO)[C@@H](O)C2(F)F)c(=O)n1` [Gemcitabine], for which the “Tumor Growth Reduction % (vs. Control)” value with BxPC-3 xenograft tumor is given as 24%; with BxPC-3 xenograft tumor (listed as gemcitabine), roughly 24%.
One may read the IC50 as the concentration at which inhibition is half-maximal. Usually viability stands for the share of living cells, or the viability signal relative to a control. In the case of `c1ccc2c(c1)CCc1ccccc1N2` [Iminodibenzyl, 10,11-dihydro-5H-dibenz[b,f]azepine], the IC50 at D5D (setting [4]) was determined as 0.104 µM. Moreover, the “Tumor Growth Reduction % (vs. Control)” value with A549 xenograft tumor is given as 40%; in the assay on A549 xenograft tumor (listed as Iminodibenzly), 40%; in the assay on HCA-7 xenograft tumor (setting [5]) it was 17%; in the assay with HCA-7 xenograft tumor (every day, 4-week, DGLA 5 mg/mouse oral, iminodibenzyl 15 mg/kg i.p., listed as Iminodibenzly), 17%. Further, the “[8-HOA]” value in the assay with A549 xenograft tumor was 0.05 µg/g; in the assay on A549 cells it was 0.83 µM; with BxPC-3 cells it was 0.53 µM; in the assay on HCA-7 xenograft tumor (setting [5]) it was 0.07 µg/g. The “[PGE2] in tumors after 4-week treatment” value in the assay with A549 xenograft tumor (A549 tumor, 15 mg/kg every day, vehicle control 2.0 μg/g) is 1.5 µg/g; with HCA-7 xenograft tumor (15 mg/kg every day, vehicle control 2.0 μg/g), 1.6 µg/g. Also, the “[AA] in tumors after 4-week treatment” value turned out to be 2.5 µg/g with A549 xenograft tumor (A549 tumor, 15 mg/kg every day, vehicle control 3.7 μg/g) and 2.2 µg/g in the assay on HCA-7 xenograft tumor (15 mg/kg every day, vehicle control 3.5 μg/g). The “Cell Survival Rate” value in assay [1] was determined as 22%; in assay [1] (listed as iminodibenyl), 22%; with HCA-7 (colon cancer) (10 μM), 66%; in the assay on HCA-7 (colon cancer) (10 μM, listed as iminodibenyl), 66%; in assay [3], 73%; in [3] (listed as iminodibenyl) it was 73%. Further, the viability at 10 µM in the assay with HCA-7 (colon cancer) (Homo sapiens, HCA-7, 48 h, read-out: cell viability) was roughly 66%. For the same molecule, the “[8-HOA] (HCA-7 cells)” value in the assay with HCA-7/C29 cells was 0.65 µM; in the assay with HCA-7/C29 cells (listed as iminodibenzyl), > 0.5 µM and 0.65 µM. The “Primary Tumor size (mm^3)” value was 87 mm^3 in assay [2] (Day 14, vehicle 128); 476 mm^3 in assay [2] (Day 21, vehicle 916); 1153 mm^3 in assay [2] (Day 28, vehicle 2956). In addition, in [2] (Day 21, metastatic lung tumors, 1 mouse, vehicle 4), the “Lung tumor(s) per mouse” value came to 0. In assay [2] (Day 28), the “8-HOA (μM) in Blood” value amounted to 0.021 µM. The “Reduced Tumor Growth vs. V.C.” value came out at 58% in assay [2] (Day 28, listed as Iminodibenzy, 15 mg/kg) and 58% in assay [2] (Day 28, listed as iminodibenzyl, 15 mg/kg). Also, in assay [2], the “mice that developed metastatic lung tumor” value was 1 of four mice.
Regarding `COc1cc(/C=C/C(=O)CC(=O)/C=C/c2ccc(O)c(OC)c2)ccc1O` [Cucurmin, curcumin, reference compound], it took 0.148 µM to reach half-maximal inhibition on D5D (IC50). Also, in the assay on HCA-7/C29 cells, the “[8-HOA] (HCA-7 cells)” value was determined as 0.43 µM.
Consider `C1=Cc2ccccc2Nc2ccccc21` [Iminostilbene, 5H-dibenz[b,f]azepine], for which, in the assay on HCA-7 (colon cancer) (10 μM, colon cancer cells), the “suppression of cancer cell growth” value is given as “unable to suppress cancer cell growth”. Besides, the “[8-HOA] (HCA-7 cells)” value in the assay on HCA-7/C29 cells was “did not promote 8-HOA formation”.
For the molecule `c1cc2c(cc1[C@H]1OC[C@H]3[C@@H]1CO[C@@H]3c1ccc3c(c1)OCO3)OCO2` [Sesame, sesamin, reference compound], the IC50 at D5D (setting [4]) was found to be 0.346 µM. The “[8-HOA] (HCA-7 cells)” value with HCA-7/C29 cells was 0.33 µM.
Take `O=c1[nH]cc(F)c(=O)[nH]1` [Molecule 5-FU, 5-fluorouracil, reference compound]: the “Tumor Growth Reduction % (vs. Control)” value in the assay with HCA-7 xenograft tumor (twice/week up to 4-week, 5-FU 30 mg/kg, DGLA 8 mg/mouse, iminodibenzyl 25 mg/kg) came out at 29%.
For `CCCCC/C=C\C/C=C\C/C=C\CCCCCCC(=O)O` [DGLA, dihomo-γ-linolenic acid], the “Tumor Growth Reduction % (vs. Control)” value with A549 xenograft tumor and in the assay with HCA-7 xenograft tumor (setting [5]) was “did not deliver any inhibitory effect on tumor growth” throughout. Moreover, the “[8-HOA]” value is 0.22 µg/g in the assay on A549 xenograft tumor and 0.27 µg/g in the assay with HCA-7 xenograft tumor (setting [5]). For the same molecule, the “Primary Tumor size (mm^3)” value was 106 mm^3 in assay [2] (Day 14, vehicle 128); 908 mm^3 in assay [2] (Day 21, vehicle 916); 2631 mm^3 in assay [2] (Day 28, vehicle 2956). Also, the “8-HOA (μM) in Blood” value in assay [2] (Day 28) stood at 0.31 µM. Also, the “Reduced Tumor Growth vs. V.C.” value in assay [2] (Day 28) was “unable to inhibit primary tumor growth”. Moreover, in assay [2], the “mice that developed metastatic lung tumor” value is “All three mice in this group developed lung tumors”.
Turning to `CC(C)CCOc1ccc(N)cc1` [CP-24879, reference compound], the “[8-HOA] (HCA-7 cells)” value in the assay with HCA-7/C29 cells came out at 0.42 µM.
